In patent US9314446B2, “Sustained releasing pharmaceutical composition” (priority 2013, dated 2016):

Experiment: In-vitro release of diclofenac (dialysis bag, PBS, absorbance 300 nm)
Type: physicochemical
Settings: 1 mg/ml, PBS 37° C.
Experimental: In-vitro experiment on agent release of hydrogel is designed to simulate its in-vivo effect. The 500 μg/ml latanoprost-loaded solution were added to the transwell (100 μl/well) mounted on 24-well plates, and 1.5 ml PBS was added in each well and then incubated at 37° C. The 1.5 ml PBS was collected and another 1.5 ml PBS was then replenished at each time (Days 1, 7, 14 and 28). The amount of latanoprost was analyzed by a LC-MS/MS system equipped with an electrospray ionization source. The LC-MS/MS consisted of a Sciex API 3000 tandem mass spectrometer and Agilent 1100 series LC system. Separation of latanoprost was achieved by using a Phenomenex Luna C18 column (particle size 5 um, 50 mm×4.6 mm i.d.). The mobile phase consisted of latanoprost was (A) 0.1% (v/v) formic acid and (B) acetonitrile containing 0.1% formic acid (A:B=7:3, v/v) and delivered at 0.3 ml per minute. The mass spectrometer was operated in positive mode which used multiple reaction monitoring. The precursor to produce ion transition of m/z 374.2→195.2 was monitored. In another experiment, the dialysis bags with molecular weight cut-off of 1 kD were used to retain the diclofenac-loaded hydrogel and allow the released diclofenac to permeate into the release medium (PBS). Briefly, 800 μl diclofenac-loaded hydrogel (1 mg/ml) or diclofenac only (1 mg/ml) was added to a dialysis bag. The sample-loaded dialysis bag was immersed in 30 ml of PBS at 100 rpm and 37° C. At fixed time intervals, the release medium was collected and replaced with an equal amount of PBS. According to the absorption curve of diclofenac, the diclofenac content of the each sample was analyzed by Tecan's Infinite® M 1000 spectrophotometer at the wavelength of 300 nm. […] The percentage of cumulative release at 1, 7, 14 and 28 days were 1.34±0.33, 26.80±5.40, 45.03±2.55 and 67.72±4.25%, respectively. Additives in hydrogel affect its composition, structure and may also change its drug releasing characteristics. […] The percentage of cumulative release of 1 mg/ml diclofenac only group at 5, 18, 24, 48, 75 and 140 hours was 106.08±10.48, 99.34±6.57, 106.62±13.76, 102.28±7.40, 105.75±5.76 and 112.14±7.05%.

cumulative release of diclofenac (5 hours): 106.08±10.48%
cumulative release of diclofenac (18 hours): 99.34±6.57%
cumulative release of diclofenac (24 hours): 106.62±13.76%
cumulative release of diclofenac (48 hours): 102.28±7.40%
cumulative release of diclofenac (75 hours): 105.75±5.76%
cumulative release of diclofenac (140 hours): 112.14±7.05%
Structure (SMILES): O=C(O)Cc1ccccc1Nc1c(Cl)cccc1Cl [diclofenac]
